Experimental data taken from US9932331B2, “Phenyl tetrahydroisoquinoline compound substituted with heteroaryl” (TAISHO PHARMACEUTICAL CO., LTD, priority 2014, dated 2018).
Where a name gives a salt, the structure may show the parent alone.

Experiments:
human NHE3 = target: T1, human NHE3 (Homo sapiens, UniProt P48764); test: NHE3 inhibition test (recovery of intracellular pH in cell line stably expressing human NHE3); assay type: cell-based; settings: OK cells deficient in endogenous NHE stably expressing human NHE3; BCECF fluorescence, initial rate of pH recovery; read-out: human NHE3 inhibitory activity IC50
T1 sequence (P48764 26-834): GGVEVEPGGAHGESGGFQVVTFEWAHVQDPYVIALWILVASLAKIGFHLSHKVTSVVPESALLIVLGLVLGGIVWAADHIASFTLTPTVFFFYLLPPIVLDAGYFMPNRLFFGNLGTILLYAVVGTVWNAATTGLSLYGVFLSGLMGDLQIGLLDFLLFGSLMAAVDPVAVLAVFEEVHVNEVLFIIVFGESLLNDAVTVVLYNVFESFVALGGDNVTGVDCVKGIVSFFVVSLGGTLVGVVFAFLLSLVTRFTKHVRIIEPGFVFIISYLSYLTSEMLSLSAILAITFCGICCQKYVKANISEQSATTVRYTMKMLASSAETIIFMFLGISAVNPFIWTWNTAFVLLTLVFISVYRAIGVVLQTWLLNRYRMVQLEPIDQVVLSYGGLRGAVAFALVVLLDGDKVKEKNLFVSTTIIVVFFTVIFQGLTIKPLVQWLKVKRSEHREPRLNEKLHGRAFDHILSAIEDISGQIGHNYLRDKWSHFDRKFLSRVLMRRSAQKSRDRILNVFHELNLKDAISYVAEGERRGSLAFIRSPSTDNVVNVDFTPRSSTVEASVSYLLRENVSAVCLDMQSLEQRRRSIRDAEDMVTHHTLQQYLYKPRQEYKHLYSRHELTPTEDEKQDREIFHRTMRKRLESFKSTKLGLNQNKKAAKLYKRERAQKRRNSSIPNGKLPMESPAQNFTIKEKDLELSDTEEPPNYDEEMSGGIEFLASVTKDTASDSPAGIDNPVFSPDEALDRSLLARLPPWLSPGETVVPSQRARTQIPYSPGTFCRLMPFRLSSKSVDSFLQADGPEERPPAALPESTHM
In short: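 IC50 is the concentration halving the initial rate of Na-triggered intracellular pH recovery, tracked by BCECF fluorescence, in NH4Cl-acidified cells. Cells: NHE-deficient OK line stably transfected with human NHE3; compound added in Na-free pH 7.4 buffer.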

SD rat = test: 32P-phosphate oral loading test using SD rat (phosphorus absorption inhibitory effect); assay type: in vivo; settings: Rattus norvegicus, 0.5 h; SD male rats, oral dose 3 mg/kg; plasma radioactivity 30 minutes after 32P-phosphate solution, vs control group; read-out: Rate of inhibition of phosphate absorption
In short: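 Male 8-week-old SD rats were dosed orally at 5 ml/kg with compound at 0.2 mg/mL or 0.6 mg/mL in water, then 5 min later given 32P-phosphate in 1.3 mM NaH2PO4 (5 ml/kg). Plasma radioactivity at 30 minutes was counted by liquid scintillation; inhibition (%) was calculated relative to the water-dosed control group.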

IC50 (human NHE3) [nM] | SMILES | inhibition in vivo at 3 mg/kg (SD rat) [%]
10.7 | CN1Cc2c(Cl)cc(Cl)cc2[C@@H](c2cccc(-c3cc(OCCOCCOCCOCCNC(=O)COCC(=O)NCCOCCOCCOCCOc4cc(-c5cccc([C@@H]6CN(C)Cc7c(Cl)cc(Cl)cc76)c5)ncn4)ncn3)c2)C1 [Example 8-18, 1-[(6-{3-[(4R)-6,8-Dichloro-2-methyl-1,2,3,4-tetrahydroisoquinolin-4-yl]phenyl}pyrimidin-4-yl)oxy]-N-{2-[2-(2-{2-[(6-{3-[(4S)-6,8-dichloro-2-methyl-1,2,3,4-tetrahydroisoquinolin-4-yl]phenyl}pyrimidin-4-yl)oxy]ethoxy}ethoxy)ethoxy]ethyl}-13-oxo-3,6,9,15-tetraoxa-12-azaheptadecan-17-amide hydrochloride] | 27
3.3 | CN1Cc2c(Cl)cc(Cl)cc2[C@H](c2cccc(-c3cncc(NCCOCCOCCOCCNC(=O)[C@H](O)[C@@H](O)C(=O)NCCOCCOCCOCCNc4cncc(-c5cccc([C@@H]6CN(C)Cc7c(Cl)cc(Cl)cc76)c5)n4)n3)c2)C1 [Example 8-20, (2R,3R)-N,N′-Bis{2-[2-(2-{2-[(6-{3-[(4S)-6,8-dichloro-2-methyl-1,2,3,4-tetrahydroisoquinolin-4-yl]phenyl}pyrazin-2-yl)amino]ethoxy}ethoxy)ethoxy]ethyl}-2,3-dihydroxybutanediamide tetrahydrochloride] | 37
